Data published in patent US9302993B2, “8-hydroxy quinoline derivatives” (PRANA BIOTECHNOLOGY LIMITED, priority 2002, dated 2016).
Values joined by “and” are separate entries in the source; they are usually repeats but may differ in a detail not shown here. Identical values can stand only once. Like-named read-outs stand apart in the source and are kept apart here.

Assays:
[1] = target: T1, hydrogen peroxide generation by Aβ in the presence of copper (Homo sapiens, UniProt P05067); assay: Fluorometric H2O2 assay (Assay 1); format: biochemical; settings: DCF/HRP, 37 C 60 min, several values in one cell = repeat determinations
T1 construct: The reaction solutions contained Aβ 1-42 at concentrations in the range of 50 nM to 1 μM
Protocol: Assay 1. Fluorometric H2O2 Assay
A fluorometric assay was used to test the ability of a test compound to inhibit hydrogen peroxide generation by Aβ in the presence of copper based on dichlorofluoroscein diacetate (DCF; Molecular Probes, Eugene Oreg.). The DCF solution (5 mM) in 100% dimethyl sulphoxide (previously purged with argon for 2 hr at 20° C.) was deacetylated in the presence of 0.25M NaOH for 30 min and neutralised at pH 7.4 to a final concentration of 1 mM. Horseradish peroxidase (HRP) stock solution was prepared to 1 μM at pH 7.4. The reactions were carried out in PBS, pH 7.4 in a 96 well plate (total volume=250 μl/well). The reaction solutions contained Aβ 1-42 at concentrations in the range of 50 nM to 1 μM, copper-glycine chelate (Cu-Gly), was prepared by adding CuCl2 to glycine in the ratio of 1:6 and added to the Aβ in the proportion 2Cu-Gly: 1Aβ), reducing agents including dopamine (5 μM) or ascorbic acid, deacetylated DCF 100 μM, and HRP, 0.1 μM. […] The reaction mixture was incubated at 37 C for 60 min. […] H2O2 concentration may be established by comparing fluorescence with the H2O2 standards. Inhibition of AB H2O2 production was assayed by including a given concentration of test compound(s) in the test wells.

Neuronal cortical cells = assay: Assay for test compound cytoxicity, MTS (Assay 3(d)); format: cell-based, mouse; settings: BL6J×129sv, mouse, 4 days, 10 uM
Protocol: Media was then replaced with Neurobasal media (Invitrogen Life Technologies) and B27 supplements (Invitrogen Life Technologies). Cultures were maintained at 37° C. in 5% CO2. Prior to experimentation, the culture medium was replaced with Neurobasal media and B27 minus antioxidants (Invitrogen Life Technologies).
Cell viability is determined using the MTS assay. Culture medium is […] replaced with fresh neurobasal medium plus B27 supplements minus antioxidants. 1/10th volume MTS solution (Cell Titre 96 Aqueous One, Promega Corporation) and incubated at 37° C., 2 hrs. 200 microliter aliquots are measured with a spectrophotometer at 560 nm.
(d) Assay for Test Compound Cytoxicity
Neuronal cortical cells were cultured for five days as per Assay 2 in NB media and B27 supplement.
On day six the test compounds were added to the neuronal cell cultures in NB media and B27 supplement minus antioxidants.
Test compounds were dissolved in 100% DMSO to a concentration of 2.5 mM (10 mM if excess compound was weighed out per vial—then diluted to 2.5 mM). […] Test compounds were not added directly to cells, instead they were added to a 48 well ‘Drug Plate’ as comprised below:
The Drug Plate was incubated at 37° C. for 15 mins. 200 ul of each well was added in triplicate to the corresponding cell plate. The cell plate was incubated at 37 C, for 4 days.
On completion of the assay, 1/10 volume MTS was added per well of plate (ie 25 ul/250 ul). The plates were incubated at 37 C for 2 hrs, and then absorbance was read at 560 nm.

[2] = Aβ 1-42 with Cu-Gly, read-out: Peroxide IC50

T1 sequence (P05067 672-713 limits assumed): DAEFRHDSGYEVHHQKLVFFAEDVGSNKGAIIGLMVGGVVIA

Row | Structure (SMILES) | IC50 [1, 2] | Viable 10 uM (Neuronal cortical cells) | IC50 ([1]; Peroxide IC50, Aβ 1-42 with Cu-Gly) [µM]
1 | Cc1ccccc1-c1cc(Cl)c2c(-c3ccccc3C)ccnc2c1OC(C)C [compound 805] | > 10 µM | – | –
2 | O=[N+]([O-])c1cccc(-c2cc(Cl)c3cccnc3c2O)c1 [compound 811] | > 10 µM | 78.46 | –
3 | O=C(O)CNC(=O)c1ccc2cccc(O)c2n1 [compound 956] | > 10 µM | 89 | –
4 | COc1ccccc1-c1cc(Cl)c2cccnc2c1OC(C)C [compound 819] | > 10 µM | – | –
5 | Oc1ccc(CCc2ccc3cccc(O)c3n2)cc1 [compound 91] | 50 µM and > 10 µM | – | –
6 | CC(C)Oc1c(-c2cccc([N+](=O)[O-])c2)cc(Cl)c2cccnc12 [compound 857] | > 10 µM | – | –
7 | COc1cccc2ccc(C(=O)NCCc3ccccn3)nc12 [compound 1022] | > 10 µM | – | –
8 | CC(C)Oc1c(F)cc(-c2ccccc2)c2cccnc12 [compound 816] | > 10 µM | – | –
9 | Oc1cccc2ccc(-n3ccnc3)nc12 [compound 965] | > 10 µM | – | –
10 | Oc1cccc2ccc(-n3cccn3)nc12 [compound 964, 2-pyrazol-1-yl-quinolin-8-ol] | 7.1 µM | – | –
11 | Oc1c(-c2ccsc2)cc(Cl)c2cccnc12 [compound 972] | > 10 µM | 30.59 | –
12 | CC(C)Oc1c(-c2cc(F)cc(F)c2)cc(Cl)c2cccnc12 [compound 820] | > 10 µM | – | –
13 | Oc1c(-c2ccccc2)cc(Cl)c2cccnc12 [compound 808] | > 10 µM | 71.89 | –
14 | COc1ccccc1-c1cc(I)c(OC(C)C)c2ncccc12 [compound 825] | > 10 µM | – | –
15 | CC(C)Oc1c(I)cc(Cl)c2cccnc12 [compound 804] | > 10 µM | – | –
16 | COc1ccc(-c2cc(Cl)c3cccnc3c2OC(C)C)cc1 [compound 800] | > 10 µM | – | –
17 | CC(C)Oc1c(I)cc(-c2ccccc2F)c2cccnc12 [compound 856] | > 10 µM | – | –
18 | CC(C)Oc1c(-c2ccccc2)cc(Cl)c2cccnc12 [compound 818] | > 10 µM | – | –
19 | CC(C)Oc1c(-c2ccccc2C=O)cc(Cl)c2cccnc12 [compound 867] | > 10 µM | – | –
20 | CC(C)Oc1c(I)cc(-c2ccc(C(F)(F)F)cc2)c2cccnc12 [compound 823] | > 10 µM | – | –

Row | Structure (SMILES) | IC50 [1, 2] | Viable 10 uM (Neuronal cortical cells) | IC50 ([1]; Peroxide IC50, Aβ 1-42 with Cu-Gly) [µM]
21 | O=S(=O)(NCCc1c[nH]cn1)c1ccc2cccc(O)c2n1 [compound 1035] | > 10 µM | – | –
22 | CC(=O)Oc1ccc(-c2cc(Cl)c3cccnc3c2OC(C)C)s1 [compound 822] | > 10 µM | – | –
23 | CNc1ccc2c(Cl)cc(Cl)c(O)c2n1 [compound 1047, 5,7-Dichloro-2-methylamino-8-hydroxyquinoline] | > 10 µM | – | –
24 | Oc1c(-c2cccc(F)c2)cc(Cl)c2cccnc12 [compound 850] | > 10 µM | 71.28 | –
25 | CC(C)Oc1c(-c2ccccc2F)cc(Cl)c2cccnc12 [compound 803] | > 10 µM | – | –
26 | CC(C)Oc1c(-c2ccc(F)cc2)cc(Cl)c2cccnc12 [compound 802] | > 10 µM | – | –
27 | Brc1ccc(OCc2ccccc2)c2ncccc12 [compound 821] | > 10 µM | – | –
28 | OCC1OC(Oc2cccc3cccnc23)[C@H](O)[C@@H](O)[C@H]1O (some centres unmarked) [compound 62] | > 10 µM | – | –
29 | Oc1c(-c2ccccc2F)cc(Cl)c2cccnc12 [compound 815] | > 10 µM | 53.68 | –
30 | CC(=O)Nc1ccc(O)c2ncccc12 [compound 1028] | 0.32 µM | – | –
31 | CC(=O)NCc1ccc2cccc(O)c2n1 [compound 967] | 7.8 µM | 90.69 | –
32 | COc1ccccc1-c1cc(-c2ccccc2OC)c2cccnc2c1OC(C)C [compound 824] | > 10 µM | – | –
33 | Oc1c(-c2ccc(F)cc2)cc(Cl)c2cccnc12 [compound 812] | > 10 µM | 75.36 | –
34 | CC(C)Oc1c(-c2ccc(N(C)C)cc2)cc(Cl)c2cccnc12 [compound 868] | > 10 µM | – | –
35 | Cc1ccccc1-c1cc(Cl)c2cccnc2c1OC(C)C [compound 866] | > 10 µM | – | –
36 | Oc1c(I)cc(-c2ccccc2F)c2cccnc12 [compound 865] | > 10 µM | 34.07 | –
37 | CC(C)Oc1c(-c2cccc(F)c2)cc(Cl)c2cccnc12 [compound 858] | > 10 µM | – | –
38 | O=S(=O)(O)c1ccc2cccc(O)c2n1 [compound 50] | 90 µM | – | –
39 | Oc1c(-c2ccc(F)cc2F)cc(Cl)c2cccnc12 [compound 973] | > 10 µM | 42.38 | –
40 | O=C(NCc1nccs1)c1ccc2cccc(O)c2n1 [compound 1019] | > 10 µM | – | –

Row | Structure (SMILES) | IC50 [1, 2] | Viable 10 uM (Neuronal cortical cells) | IC50 ([1]; Peroxide IC50, Aβ 1-42 with Cu-Gly) [µM]
41 | Cc1nccn1-c1ccc2cccc(O)c2n1 [compound 993] | > 10 µM | – | –
42 | CC(C)Oc1c(I)cc(I)c2cccnc12 [compound 807] | > 10 µM | – | –
43 | CC(C)Oc1c(F)cc(-c2cc(F)cc(F)c2)c2cccnc12 [compound 817] | > 10 µM | – | –
44 | CC(C)Oc1c(-c2ccccc2C(F)(F)F)cc(Cl)c2cccnc12 [compound 827] | > 10 µM | – | –
45 | Oc1cccc2cc3ccccc3nc12 [compound 1043] | 0.64 µM | – | –
46 | COc1cccc(-c2cc(Cl)c3cccnc3c2OC(C)C)c1 [compound 801] | > 10 µM | – | –
47 | Oc1ccc(F)c2cccnc12 [compound 1034] | 0.44 µM | – | –
48 | Nc1cnc2c(O)c(Cl)cc(Cl)c2c1 [compound 1060, 3-amino-5,7-dichloro-8-hydroxyquinoline] | 0.5 µM | – | –
49 | COc1ccc(-c2cc(Cl)c3cccnc3c2O)cc1 [compound 814] | – | 31.13 | –
50 | Oc1c(-c2cc3ccccc3s2)cc(Cl)c2cccnc12 [compound 970] | 6.7 µM | 32.33 | –
51 | O=C(O)c1cc(O)c2cccc(O)c2n1 [compound 52] | – | – | > 100
52 | CCOC(=O)c1ccccc1-c1ccc2cccc(O)c2n1 [compound 1004] | > 10 µM and 6.6 µM | – | –
53 | O=C(O)CNC(=O)c1cc(O)c2cccc(O)c2n1 [compound 992] | > 10 µM | – | –
54 | O=C(O)c1ccc2cccc(O)c2n1 [compound 57] | 40 µM | – | –
55 | Oc1c(-c2cc(Cl)c3cccnc3c2O)cc(Cl)c2cccnc12 [compound 971] | > 10 µM | 84.29 | –
56 | Oc1c(-c2cc(F)cc(F)c2)cc(Cl)c2cccnc12 [compound 813] | > 10 µM | 66 | –
57 | O=Cc1ccccc1-c1cc(Cl)c2cccnc2c1O [compound 849] | 4.5 µM | 98.83 | –
58 | O=C(O)C1OC(Oc2cccc3cccnc23)[C@H](O)[C@@H](O)[C@H]1O (some centres unmarked) [compound 39] | 90 µM | – | –
59 | c1ccc(COc2cccc3cccnc23)cc1 [compound 855] | > 10 µM | – | –
60 | Cc1ccccc1-c1cc(I)c(OC(C)C)c2ncccc12 [compound 826] | > 10 µM | – | –
